Test results published in patent US20130085064A1, “PESTICIDAL MIXTURES CONTAINING ISOXAZOLINE DERIVATIVES AND INSECTICIDE OR NEMATOICIDAL BIOLOGICAL AGENT” (priority 2010, published 2013).
“And” between values parts separate entries of the source, which are not always exact repeats. Identical values can stand only once. Like-named read-outs stand apart in the source and are kept apart here.

Columns and labels:
Assay type in all cases: in vivo
[1] = test system: Heliothis virescens (tobacco budworm); test: Heliothis virescens ovo-larvicide, feeding/contact, eggs on filter paper in Petri dishes; conditions: single compound, 7 days
Excerpt: (§1) The action to be expected E for a given active ingredient combination obeys the so-called COLBY formula and can be calculated as follows (COLBY, S.R. “Calculating synergistic and antagonistic responses of herbicide combination”. Weeds, Vol. 15, pages 20-22; 1967):
(§2) ppm=milligrams of active ingredient (=a.i.) per liter of spray mixture X=% action by active ingredient A) using p ppm of active ingredient Y=% action by active ingredient B) using q ppm of active ingredient.
(§3) According to COLBY, the expected (additive) action of active ingredients A)+B) using p+q ppm of active ingredient is
(§4) If the action actually observed (O) is greater than the expected action (E), then the action of the combination is super-additive, i.e. there is a synergistic effect. In mathematical terms the synergism factor SF corresponds to O/E. In the agricultural practice an SF of ≧1.2 indicates significant improvement over the purely complementary addition of activities (expected activity), while an SF of ≦0.9 in the practical application routine signals a loss of activity compared to the expected activity.
Heliothis Virescens (Tobacco Budworm):
(Ovo-Larvicide, Feeding/Contact)
30-35 fresh eggs (0-24 h old), deposited on filter paper, are placed in Petri dishes on top of a layer of artificial diet and 0.8 ml of diluted test solutions are pipetted onto them. After an incubation period of 7 days, samples are checked for egg and larval mortality. 3 replicates per treatment were evaluated.

[2] = test system: Tetranychus urticae (two spotted spider mite); test: Tetranychus urticae contact/feeding activity on bean plants, adult mortality
Excerpt: as §1, §2, §3, §4
Tetranychus Urticae (Two Spotted Spider Mite)
(Contact/Feeding Activity)
Bean plants are infested with mite populations of mixed ages. 1 day after infestation, plants are treated in a spray chamber with diluted test solutions. 1 and 8 days later, samples are checked for adult mortality. 2 replicates per treatment were evaluated.

[3] = test system: Heliothis virescens (tobacco budworm); test: Heliothis virescens eggs in 24-well microtiter plate on artificial diet, larval mortality; conditions: Heliothis virescens, 96 h, read-out: AVERAGE DEAD IN %
Excerpt: as §1, §2, §3, §4
Heliothis Virescens (Tobacco Budworm)
Eggs (0-24 h old) are placed in 24-well microtiter plate on artificial diet and treated with test solutions (DMSO) by pipetting. After an incubation period of 4 days, samples are checked for larval mortality.

[4] = test system: Spodoptera littoralis (Egyptian cotton leaf worm); test: Spodoptera littoralis larvicide L1, feeding/contact, cotton leaf discs; conditions: single compound
Excerpt: as §1, §2, §3, §4
Spodoptera Littoralis (Egyptian Cotton Leaf Worm)
(Larvicide L1, Feeding/Contact)
Cotton leaf discs are placed on agar in Petri dishes and sprayed with test solutions in an application chamber. After drying, the leaf discs are infested with 10 L1 larvae. The samples are checked for mortality 5 days after treatment. 3 replicates per treatment were evaluated. (1 PPM=1 mg l^−1)

[5] = test system: Tetranychus urticae (two-spotted spider mite); test: Tetranychus urticae bean leaf discs in 24-well microtiter plates, mixed population mortality; conditions: 8 days
Excerpt: as §1, §2, §3, §4
Tetranychus Urticae (Two-Spotted Spider Mite)
Bean leaf discs on agar in 24-well microtiter plates are sprayed with test solutions (DMSO). After drying, the leaf discs are infested with mite populations of mixed ages. 8 days later, discs are checked for mixed population mortality.

## CCOC(=O)OC1=C(c2cc(C)ccc2C)C(=O)N[C@]12CC[C@@H](OC)CC2 [Spirotetramat, spirotetramat]
[1]; 100 ppm AI
  AVERAGE DEAD IN % (EGGS): 0%
  AVERAGE DEAD IN % (LARVAE): 78%
[1]; 200 ppm AI
  AVERAGE DEAD IN % (EGGS): 67% and 65%
  AVERAGE DEAD IN % (LARVAE): 100% and 98%
[2]; 0.1 ppm alone
  AVERAGE DEAD IN % AFTER 8 DAYS: 10%
[2]; 0.2 ppm alone
  AVERAGE DEAD IN % AFTER 8 DAYS: 33%
[2]; 0.4 ppm alone
  AVERAGE DEAD IN % AFTER 8 DAYS: 38%
[2]; Spirotetramat alone 0.1 ppm AI
  AVERAGE DEAD IN % AFTER 1 DAY: 13%
[2]; Spirotetramat alone 0.2 ppm AI
  AVERAGE DEAD IN % AFTER 1 DAY: 18%
[2]; Spirotetramat alone 0.4 ppm AI
  AVERAGE DEAD IN % AFTER 1 DAY: 23%
[3]; Spirotetramat alone 6.25 ppm AI
  pest or weed control at 6.25 ppm: 0%
[3]; Spirotetramat alone 12.5 ppm AI
  pest or weed control at 12.5 ppm: 0%
[3]; Spirotetramat alone 25 ppm AI
  pest or weed control at 25 ppm: 0%
[3]; Spirotetramat alone 50 ppm AI
  pest or weed control at 50 ppm: 0%
[3]; Spirotetramat alone 100 ppm AI
  pest or weed control at 100 ppm: 0%
[3]; Spirotetramat alone 200 ppm AI
  pest or weed control at 200 ppm: 0%
[3]; single compound at 6.25 ppm AI
  pest or weed control at 6.25 ppm: 0%
[3]; single compound at 12.5 ppm AI
  pest or weed control at 12.5 ppm: 0%
[3]; single compound at 25 ppm AI
  pest or weed control at 25 ppm: 0%
[3]; single compound at 50 ppm AI
  pest or weed control at 50 ppm: 0%
[3]; single compound at 100 ppm AI
  pest or weed control at 100 ppm: 0%
[3]; single compound at 200 ppm AI
  pest or weed control at 200 ppm: 0%
[4]; 25 ppm AI
  AVERAGE DEAD IN % AFTER 5 DAYS: 23%
[4]; 50 PPM AI
  AVERAGE DEAD IN % AFTER 5 DAYS: 17% and 33%
[4]; 50 ppm AI
  AVERAGE DEAD IN % AFTER 5 DAYS: 33%
[4]; 100 PPM AI
  AVERAGE DEAD IN % AFTER 5 DAYS: 43% and 67%
[4]; 100 ppm AI
  AVERAGE DEAD IN % AFTER 5 DAYS: 67%

## CN1COCN(Cc2cnc(Cl)s2)/C1=N\[N+](=O)[O-] [Thiamethoxam, thiamethoxam]
[5]; 25 ppm alone
  AVERAGE DEAD IN %: 0%
[5]; 50 ppm alone
  AVERAGE DEAD IN %: 13%
[5]; 100 ppm alone
  AVERAGE DEAD IN %: 38%
[5]; 200 ppm alone
  AVERAGE DEAD IN %: 0%
[5]; 400 ppm alone
  AVERAGE DEAD IN %: 0%
[5]; 800 ppm alone
  AVERAGE DEAD IN %: 13%
[5]; Thiamethoxam alone, 25 ppm, Table 122
  AVERAGE DEAD IN %: 0%
[5]; Thiamethoxam alone, 50 ppm, Table 122
  AVERAGE DEAD IN %: 13%
[5]; Thiamethoxam alone, 100 ppm, Table 122
  AVERAGE DEAD IN %: 38%
[5]; Thiamethoxam alone, 200 ppm, Table 122
  AVERAGE DEAD IN %: 0%
[5]; Thiamethoxam alone, 400 ppm, Table 122
  AVERAGE DEAD IN %: 0%
[5]; Thiamethoxam alone, 800 ppm, Table 122
  AVERAGE DEAD IN %: 13%
[1]; 100 ppm AI
  AVERAGE DEAD IN % (EGGS): 0%
  AVERAGE DEAD IN % (LARVAE): 78%
[1]; 200 ppm AI
  AVERAGE DEAD IN % (EGGS): 0%
  AVERAGE DEAD IN % (LARVAE): 80%
[2]; 200 ppm alone
  AVERAGE DEAD IN % AFTER 8 DAYS: 5%
[2]; Thiamethoxam alone 200 ppm AI
  AVERAGE DEAD IN % AFTER 1 DAY: 0%
[3]; Thiamethoxam alone 6.25 ppm AI
  pest or weed control at 6.25 ppm: 0%
[3]; Thiamethoxam alone 12.5 ppm AI
  pest or weed control at 12.5 ppm: 0%
[3]; Thiamethoxam alone 25 ppm AI
  pest or weed control at 25 ppm: 0%
[3]; Thiamethoxam alone 50 ppm AI
  pest or weed control at 50 ppm: 0%
[3]; Thiamethoxam alone 100 ppm AI
  pest or weed control at 100 ppm: 25%
[3]; Thiamethoxam alone 200 ppm AI
  pest or weed control at 200 ppm: 65%
[3]; single compound at 6.25 ppm AI
  pest or weed control at 6.25 ppm: 0%
[3]; single compound at 12.5 ppm AI
  pest or weed control at 12.5 ppm: 0%
[3]; single compound at 25 ppm AI
  pest or weed control at 25 ppm: 0%
[3]; single compound at 50 ppm AI
  pest or weed control at 50 ppm: 0%
[3]; single compound at 100 ppm AI
  pest or weed control at 100 ppm: 25%
[3]; single compound at 200 ppm AI
  pest or weed control at 200 ppm: 65%
[4]; 0.2 PPM AI
  AVERAGE DEAD IN % AFTER 5 DAYS: 7% and 10%
[4]; 0.2 ppm AI
  AVERAGE DEAD IN % AFTER 5 DAYS: 10%
[4]; 0.4 PPM AI
  AVERAGE DEAD IN % AFTER 5 DAYS: 13%
[4]; 0.4 ppm AI
  AVERAGE DEAD IN % AFTER 5 DAYS: 13%
[4]; 0.8 PPM AI
  AVERAGE DEAD IN % AFTER 5 DAYS: 30%
[4]; 0.8 ppm AI
  AVERAGE DEAD IN % AFTER 5 DAYS: 30%
